Where two headings read alike, the source gives them in different places.
What was measured:
[1] = MTT cytotoxicity assay, normal human cell line; type: cell-based; details: human, WI38 cells (normal human cells), 24 h treatment, mean ± SD of three experiments, read-out: In Vitro Cytotoxicity IC50 WI38
Description: (§1) In addition, the safety profile of the 2-sulfanylquinazolin-4(3H)-one derivatives was evaluated against normal human cells (WI38) […]. The standard MTT (3-(4,5-dimethylthiazol-2-yl)-2,5 diphenyl tetrazolium bromide) colorimetric assay protocol was used, as described by Mosmann. […] The results were expressed as growth inhibitory concentration (IC50) values.
(§2) The cell lines were obtained from ATCC (American Type Culture Collection). […] After incubation, the cells were treated with different concentrations of the synthesized compounds and incubated for 24 h. Afterward, the cells were washed with PBS, and 20 µL of MTT solution at 5 mg/mL was added, all incubated for 4 h. The MTT solution was discarded, and 100 µL of dimethyl sulfoxide (DMSO) was added per well. […] The relative cell viability in percentage was calculated as (A570 of treated cells/A570 of untreated cells) × 100.

MDA-MB-231 cells = assay: MTT cytotoxicity assay; type: cell-based, human; details: MDA-MB-231, MTT, 24 h treatment, mean ± SD of three experiments, read-out: In Vitro Cytotoxicity IC50 MDA-MB-231
Description: as §1, §2

MCF-7 cells = assay: MTT cytotoxicity assay; type: cell-based, human; details: MCF-7, MTT, 24 h treatment, mean ± SD of three experiments, read-out: In Vitro Cytotoxicity IC50 MCF-7
Description: as §1, §2

HeLa cells = assay: MTT cytotoxicity assay; type: cell-based, human; details: 24 h treatment, mean ± SD of three experiments, read-out: In Vitro Cytotoxicity IC50 HeLa
Description: as §1, §2

HepG2 cells [2] = assay: MTT cytotoxicity assay; type: cell-based, human; details: 24 h treatment, mean ± SD of three experiments, read-out: In Vitro Cytotoxicity IC50 HepG2
Description: as §1, §2

WI38 cells = assay: MTT cytotoxicity assay, normal human cell line; type: cell-based; details: 24 h treatment, mean ± SD of three experiments, read-out: In Vitro Cytotoxicity IC50 WI38
Description: as §1, §2

HepG2 cells [3] = assay: Annexin V-FITC/PI apoptosis assay; type: cell-based, human; details: HepG2, 7.1 µM, 24 h
Description: (§3) In order to investigate apoptosis, the most cytotoxic compound in anti-proliferative assay 5d was further exposed to […] using the standard Annexin V/PI double staining procedure.
The apoptotic and necrotic effect of compound 5d was investigated using flow cytometry, as described in [43]. The HepG2 cells were treated with 7.1 µM of compound 5d for 24 h. After treatment, the cells were collected by trypsinization, centrifuged, and washed two times with PBS. A suspension of cells in 500 μL binding buffer was double stained with 5 μL Annexin V-FITC and 5 μL PI in the dark at room temperature for 15 min. The stained cells were measured using an Epics XL-MCL™ Flow Cytometer (Beckman Coulter), and the data were analyzed using Flowing software (version 2.5.1, Turku Centre for Biotechnology, Turku, Finland).

[4] = tested on: HepG2, MCF-7, MDA-231, and HeLa; assay: MTT cytotoxicity assay, range over the tested cancer cell lines; type: cell-based; details: Homo sapiens, range over HepG2, MCF-7, MDA-231 and HeLa, read-out: IC50 range against all tested cancer cell lines
Description: as §1, §2

Bcl2 = assay: RT-PCR of apoptosis-related genes in HepG2 cells; type: cell-based, human; details: HepG2 cells treated with 5d, control = 1, downregulated
Description: (§4) RT-PCR reactions were carried out to investigate the relative gene expression of apoptosis-related genes, including the proapoptotic genes Bax, caspases 3 and 9, and the anti-apoptotic Bcl2 gene. […] Therefore, it can be concluded that the induction of apoptosis in HepG2 cells upon treatment with 5d is associated with the upregulation of proapoptotic genes and the downregulation of anti-apoptotic genes.
(§5) The level of apoptotic markers caspase-3, caspase-9, Bax, and Bcl-2 was measured using BIORAD iScript TM One-Step RT-PCR kit with SYBR® Green. According to the manufacturer’s instructions, the kit was used in three subsequent steps.
(§6) mRNA isolation of up to 1 × 10^7 cells was carried out using an RNeasy extraction kit. Cells were disrupted in RNeasy Lysis Buffer (RLT buffer) and homogenized. Ethanol was then added to make a lysate and provoke the selective binding of RNA to the RNeasy membrane. The sample was then applied to the RNeasy mini spin column, where total RNA binds to the membrane while contaminants pass through. The RNA was then eluted in RNase-free water.
(§7) All the following reagents were mixed to make about 50 μL mixture: 2X SYBR® Green RT-PCR reaction mixture (25 μL), forward primer (10 μM; 1.5 μL), reverse primer (10 μM; 1.5 μL), nuclease-free H2O (11 μL), RNA template (1 pg to 100 ng total RNA; 10 μL) and iScript reverse transcriptase for One-Step RT-PCR (1 μL).
(§8) The whole reaction mixture was incubated in a real-time thermal detection system (Rotorgene) as follows: cDNA synthesis (10 min at 50 °C), iScript reverse transcriptase inactivation (5 min at 95 °C), PCR cycling and detection (30–45 cycles):10 s at 95 °C and 30 s at 55 °C to 60 °C (data collection step) and melt curve analysis: 1 min at 95 °C, 1 min at 55 °C and 10 s at 55 °C–95 °C (80 cycles, increasing each by 0.5 °C each cycle).

caspase-3 = assay: RT-PCR of apoptosis-related genes in HepG2 cells; type: cell-based, human; details: HepG2 cells treated with 5d, control = 1, increase
Description: as §4, §5, §6, §7, §8

caspase-9 = assay: RT-PCR of apoptosis-related genes in HepG2 cells; type: cell-based, human; details: HepG2 cells treated with 5d, control = 1, increase
Description: as §4, §5, §6, §7, §8

Bax = assay: RT-PCR of apoptosis-related genes in HepG2 cells; type: cell-based, human; details: HepG2 cells treated with 5d, control = 1, increase
Description: as §4, §5, §6, §7, §8

CDK2 = molecular target: T1, CDK2 (Homo sapiens, UniProt P24941); assay: Kinase inhibition, ELISA kit; type: biochemical; details: mean ± SD of three experiments
T1 construct: purchased
Description: (§9) The corresponding kinase inhibitory kit assays were used, and the results are expressed as IC50 values (µM), as presented in Table 2.
(§10) Afterward, the plate was incubated at room temperature for 2.5 h and then washed with PBS. A total of 100 μL of the prepared biotin antibody was added and incubated at room temperature for an additional 1 h, and then 100 μL of streptavidin solution was added and incubated at room temperature for another 45 min. After washing, 100 μL of TMB substrate reagent was added and incubated for 30 min at room temperature. Finally, about 50 μL of the stop solution was added and then read at 450 nm immediately. A standard curve was drawn, with concentrations on the X-axis and absorbance on the Y-axis.

HER2 = molecular target: T2, HER2 (Homo sapiens, UniProt P04626); assay: Kinase inhibition, ELISA kit; type: biochemical; details: mean ± SD of three experiments
T2 construct: purchased
Description: as §9, §10

VEGFR2 = molecular target: T3, VEGFR2 (Homo sapiens, UniProt P35968); assay: Kinase inhibition, ELISA kit; type: biochemical; details: mean ± SD of three experiments
T3 construct: purchased
Description: . The corresponding kinase inhibitory kit assays were used, and the results are expressed as IC50 values (µM), as presented in Table 2. […]. The inhibitory activity of compound 5d against CDK2, HER2, EGFR, and VEGFR2 was evaluated using the corresponding human kinases ELISA kit (Enzyme-Linked Immunosorbent Assay). In brief, specific antibodies for each kinase were seeded on a 96-well plate, and 100 μL of the standard solution or compound 5d was added. Afterward, the plate was incubated at room temperature for 2.5 h and then washed with PBS. A total of 100 μL of the prepared biotin antibody was added and incubated at room temperature for an additional 1 h, and then 100 μL of streptavidin solution was added and incubated at room temperature for another 45 min. After washing, 100 μL of TMB substrate reagent was added and incubated for 30 min at room temperature. Finally, about 50 μL of the stop solution was added and then read at 450 nm immediately. A standard curve was drawn, with concentrations on the X-axis and absorbance on the Y-axis.

HepG2 cells [5] = assay: Flow cytometry analysis of cell cycle; type: cell-based, human; details: HepG2, 7.1 µM, 24 h
Description: as §3
Flow cytometry analysis was conducted to assess the effect of compound 5d on the cell cycle distribution in HepG2 cells. The Flow Cytometry Kit for cell cycle analysis (ab139418_Propidium Iodide Flow Cytometry Kit/BD) was used in this test. First, the HepG2 cells were seeded in six-well plates at a density of 2 × 10^5 cells/well and incubated for 24 h. In the second step, 10% FBS was added, and the cells were incubated at 37 °C and 5% CO2. The medium was replaced with (DMSO 1% v/v) containing 7.1 µM of compound 5d and then incubated for 24 h. After that, the cells were fixed with 70% ethanol at 4 °C for 12 h and washed with cold PBS, and then rinsed with PBS. In the last step, 100 μL of RNase A was added to each well and incubated at 37 °C for 30 min and stained with 400 μL PI in the dark at room temperature for an additional 30 min. The stained cells were measured using an Epics XL-MCL™ Flow Cytometer (Beckman Coulter), and the data were analyzed using Flowing software (version 2.5.1, Turku Centre for Biotechnology, Turku, Finland).

EGFR = molecular target: T4, EGFR (Homo sapiens, UniProt P00533); assay: Kinase inhibition, ELISA kit; type: biochemical; details: mean ± SD of three experiments
T4 construct: purchased
Description: as §10, with “The corresponding kinase inhibitory kit assays were used, and the results are expressed as IC50 values (µM), as presented in Table 2. […] Afterward,” for “Afterward,”

T3 sequence (P35968 20-1356): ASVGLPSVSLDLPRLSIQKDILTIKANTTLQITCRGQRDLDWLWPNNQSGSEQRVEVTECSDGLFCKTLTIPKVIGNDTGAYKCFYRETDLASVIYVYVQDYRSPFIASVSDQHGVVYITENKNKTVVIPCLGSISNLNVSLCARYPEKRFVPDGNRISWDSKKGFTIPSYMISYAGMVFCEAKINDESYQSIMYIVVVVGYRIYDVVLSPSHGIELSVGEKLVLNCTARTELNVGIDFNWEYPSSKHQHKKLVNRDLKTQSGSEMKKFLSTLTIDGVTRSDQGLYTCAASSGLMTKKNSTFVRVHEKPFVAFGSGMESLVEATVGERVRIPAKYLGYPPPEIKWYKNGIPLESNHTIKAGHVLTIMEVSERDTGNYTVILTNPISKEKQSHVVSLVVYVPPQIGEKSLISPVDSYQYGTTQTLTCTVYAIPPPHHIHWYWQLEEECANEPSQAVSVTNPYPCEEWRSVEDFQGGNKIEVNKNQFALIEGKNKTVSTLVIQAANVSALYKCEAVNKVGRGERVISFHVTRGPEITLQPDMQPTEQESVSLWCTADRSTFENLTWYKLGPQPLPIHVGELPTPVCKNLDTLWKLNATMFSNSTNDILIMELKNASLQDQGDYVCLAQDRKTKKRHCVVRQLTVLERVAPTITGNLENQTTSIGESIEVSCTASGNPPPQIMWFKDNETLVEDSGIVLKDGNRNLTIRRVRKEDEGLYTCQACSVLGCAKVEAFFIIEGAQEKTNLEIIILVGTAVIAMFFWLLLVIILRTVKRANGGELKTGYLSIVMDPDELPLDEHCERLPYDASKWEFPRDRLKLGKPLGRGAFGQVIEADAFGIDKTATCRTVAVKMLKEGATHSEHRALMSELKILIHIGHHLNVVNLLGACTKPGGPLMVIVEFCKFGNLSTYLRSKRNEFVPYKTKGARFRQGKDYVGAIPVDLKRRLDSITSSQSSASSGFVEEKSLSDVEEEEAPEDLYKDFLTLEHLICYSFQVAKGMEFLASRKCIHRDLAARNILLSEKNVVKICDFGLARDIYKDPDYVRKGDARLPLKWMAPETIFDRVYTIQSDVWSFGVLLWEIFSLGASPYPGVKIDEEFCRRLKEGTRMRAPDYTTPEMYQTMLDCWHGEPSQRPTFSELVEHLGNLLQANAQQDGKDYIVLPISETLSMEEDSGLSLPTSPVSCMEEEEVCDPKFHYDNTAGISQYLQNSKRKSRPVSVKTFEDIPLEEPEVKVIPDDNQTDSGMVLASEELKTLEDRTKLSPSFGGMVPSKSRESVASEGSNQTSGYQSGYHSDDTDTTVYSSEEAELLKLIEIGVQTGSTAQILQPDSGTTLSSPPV
T4 sequence (P00533 25-1210): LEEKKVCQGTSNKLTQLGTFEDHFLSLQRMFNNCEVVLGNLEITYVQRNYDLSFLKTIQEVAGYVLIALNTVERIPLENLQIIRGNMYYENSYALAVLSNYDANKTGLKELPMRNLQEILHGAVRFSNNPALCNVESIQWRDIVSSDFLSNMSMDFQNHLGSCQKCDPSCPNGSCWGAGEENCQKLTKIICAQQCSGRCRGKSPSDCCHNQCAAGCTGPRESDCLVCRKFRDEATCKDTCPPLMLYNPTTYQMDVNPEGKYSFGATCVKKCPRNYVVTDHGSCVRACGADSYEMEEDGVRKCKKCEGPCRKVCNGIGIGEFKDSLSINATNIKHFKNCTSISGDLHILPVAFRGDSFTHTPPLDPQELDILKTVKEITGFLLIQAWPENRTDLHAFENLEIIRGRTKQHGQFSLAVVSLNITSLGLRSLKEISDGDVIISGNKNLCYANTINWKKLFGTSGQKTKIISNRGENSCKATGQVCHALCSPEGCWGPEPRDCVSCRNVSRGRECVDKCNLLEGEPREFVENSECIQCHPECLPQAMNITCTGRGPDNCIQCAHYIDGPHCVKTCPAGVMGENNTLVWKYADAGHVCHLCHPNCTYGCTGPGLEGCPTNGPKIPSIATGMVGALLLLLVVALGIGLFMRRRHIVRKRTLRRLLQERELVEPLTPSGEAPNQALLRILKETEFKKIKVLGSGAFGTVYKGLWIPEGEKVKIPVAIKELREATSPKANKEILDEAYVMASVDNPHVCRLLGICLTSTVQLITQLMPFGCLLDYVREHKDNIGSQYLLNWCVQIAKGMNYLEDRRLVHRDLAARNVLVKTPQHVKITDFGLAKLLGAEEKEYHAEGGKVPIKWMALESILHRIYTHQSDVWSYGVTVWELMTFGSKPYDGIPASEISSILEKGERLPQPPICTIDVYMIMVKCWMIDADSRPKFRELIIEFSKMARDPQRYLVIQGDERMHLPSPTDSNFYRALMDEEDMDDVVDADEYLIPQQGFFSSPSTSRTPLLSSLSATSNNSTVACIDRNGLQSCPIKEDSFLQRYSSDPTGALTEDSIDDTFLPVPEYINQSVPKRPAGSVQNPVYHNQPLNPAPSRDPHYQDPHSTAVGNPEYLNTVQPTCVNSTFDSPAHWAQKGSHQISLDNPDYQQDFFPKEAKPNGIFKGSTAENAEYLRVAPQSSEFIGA
T2 sequence (P04626 23-1255): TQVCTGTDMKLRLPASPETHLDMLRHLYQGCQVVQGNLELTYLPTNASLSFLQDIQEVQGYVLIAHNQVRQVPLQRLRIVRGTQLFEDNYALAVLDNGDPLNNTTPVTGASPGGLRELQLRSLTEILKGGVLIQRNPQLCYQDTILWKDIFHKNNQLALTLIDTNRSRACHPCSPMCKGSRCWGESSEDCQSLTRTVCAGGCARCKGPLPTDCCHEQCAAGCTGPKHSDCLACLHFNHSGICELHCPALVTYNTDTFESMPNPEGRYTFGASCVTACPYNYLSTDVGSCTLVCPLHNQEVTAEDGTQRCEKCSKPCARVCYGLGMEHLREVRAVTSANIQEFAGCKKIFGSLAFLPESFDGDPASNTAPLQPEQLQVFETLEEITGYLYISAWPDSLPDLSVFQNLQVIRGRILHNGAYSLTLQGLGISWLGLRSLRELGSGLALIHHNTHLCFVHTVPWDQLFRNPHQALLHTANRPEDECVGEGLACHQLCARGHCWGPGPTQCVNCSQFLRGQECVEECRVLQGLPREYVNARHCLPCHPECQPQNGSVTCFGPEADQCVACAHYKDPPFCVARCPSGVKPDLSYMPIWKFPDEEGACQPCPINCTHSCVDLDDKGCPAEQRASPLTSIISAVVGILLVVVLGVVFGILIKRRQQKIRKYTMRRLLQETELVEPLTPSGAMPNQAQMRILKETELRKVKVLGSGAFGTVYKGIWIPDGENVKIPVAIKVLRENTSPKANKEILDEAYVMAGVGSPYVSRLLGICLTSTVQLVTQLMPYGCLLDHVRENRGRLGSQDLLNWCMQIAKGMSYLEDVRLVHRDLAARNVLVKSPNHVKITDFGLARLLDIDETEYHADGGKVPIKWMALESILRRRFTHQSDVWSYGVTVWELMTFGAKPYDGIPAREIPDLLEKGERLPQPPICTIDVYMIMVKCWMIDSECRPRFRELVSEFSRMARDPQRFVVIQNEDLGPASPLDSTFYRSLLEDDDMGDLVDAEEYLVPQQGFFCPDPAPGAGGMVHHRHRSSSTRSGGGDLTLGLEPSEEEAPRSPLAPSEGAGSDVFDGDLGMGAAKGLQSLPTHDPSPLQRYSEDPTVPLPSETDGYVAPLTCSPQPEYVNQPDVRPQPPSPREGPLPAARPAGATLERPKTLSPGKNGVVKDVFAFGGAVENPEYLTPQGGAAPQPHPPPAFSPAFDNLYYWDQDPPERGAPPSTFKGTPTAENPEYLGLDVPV

## Cc1ccc(CSc2nc3ccc(F)cc3c(=O)n2-c2ccc(F)cc2)cc1 [Compound 5a, 3-(4-fluoro-Arenyl)-6-fluoro-2-(4-methyl-benzylsulfanyl)-3H-quinazolin-4-one]
[1]
  IC50 at 24 h: 28.7 ± 2.2 µM
other
  melting point: 166 to 168 °C
MDA-MB-231 cells; Homo sapiens, MDA-MB-231, 24 h
  IC50: 79.1 ± 4 µM
MCF-7 cells; Homo sapiens, MCF7, 24 h
  IC50: 86 ± 4.4 µM
HeLa cells; Homo sapiens, 24 h
  IC50: 83.2 ± 4.1 µM
HepG2 cells [2]; Homo sapiens, HepG2, 24 h
  IC50: > 100 µM

## Cc1ccc(CSc2nc3ccc(F)cc3c(=O)n2-c2ccccc2)cc1 [Compound 5b, 6-Fluoro-2-(4-methyl-benzylsulfanyl)-3-Arenyl-3H-quinazolin-4-one]
[1]
  IC50 at 24 h: > 100 µM
other
  melting point: 158 to 160 °C
MDA-MB-231 cells; Homo sapiens, MDA-MB-231, 24 h
  IC50: 78.3 ± 3.9 µM
MCF-7 cells; Homo sapiens, MCF7, 24 h
  IC50: 91.2 ± 4.8 µM
HeLa cells; Homo sapiens, 24 h
  IC50: > 100 µM
HepG2 cells [2]; Homo sapiens, HepG2, 24 h
  IC50: 85 ± 4.6 µM

## Cc1ccc(-n2c(SCc3ccccc3)nc3ccc(F)cc3c2=O)cc1 [Compound 5c, 2-Benzylsulfanyl-6-fluoro-3-(4-methyl-Arenyl)-3H-quinazolin-4-one]
WI38 cells
  IC50: 40.9 ± 2.6 µM
other
  melting point: 156 to 158 °C
MDA-MB-231 cells
  IC50: 26.9 ± 1.9 µM
MCF-7 cells
  IC50: 51.9 ± 3.1 µM
HeLa cells
  IC50: 31.2 ± 2.1 µM
HepG2 cells [2]
  IC50: 34.3 ± 2.4 µM

## Cc1ccc(-n2c(SCc3ccc(Cl)cc3)nc3ccc(F)cc3c2=O)cc1 [Compound 5d, 2-(4-Chloro-benzylsulfanyl)-6-fluoro-3-(4-methylArenyl)-3H-quinazolin-4-one]
WI38 cells
  IC50: 64.3 ± 3.5 µM
[1]
  IC50 at 24 h: 40.9 µM
HepG2 cells [3]; control 1.45%
  necrosis, % of cell population: 3.08%
HepG2 cells [3]; control 2.28%
  total apoptosis, % of cell population: 28.04%
[4]
  IC50: 1.94 to 7.1 µM
Bcl2
  expression of anti-apoptotic gene Bcl2, fold change: 0.4 fold
caspase-3
  gene expression of caspase-3, fold change: three
caspase-9
  gene expression of caspase-9, fold change: two
Bax
  gene expression of Bax, fold change: three
CDK2
  IC50: 2.1 ± 0.126 µM
HER2
  IC50: 0.184 ± 0.008 µM
VEGFR2
  IC50: 0.336 ± 0.009 µM
HepG2 cells [5]
  phase of cell cycle arrest: S phase
HepG2 cells [5]; in comparison to the control
  drop in the cell population at the G0-G1 phase: 4.5%
  drop in the cell population at the G2/M phase: 4.73%
  increase in the cell population in the S phase: 9.23%
EGFR
  IC50: 0.22 ± 0.013 µM
MDA-MB-231 cells; Homo sapiens, MDA-MB-231, 24 h
  IC50: 1.94 ± 0.1 µM
MCF-7 cells; Homo sapiens, MCF7, 24 h
  IC50: 2.48 ± 0.2 µM
HeLa cells; Homo sapiens, 24 h
  IC50: 6.38 ± 0.4 µM
HepG2 cells [2]; Homo sapiens, HepG2, 24 h
  IC50: 7.1 ± 0.6 µM

## Cc1ccc(-n2c(SCc3ccc(F)cc3)nc3ccc(F)cc3c2=O)cc1 [Compound 5e, 2-(4-Fluoro-benzylsulfanyl)-6-fluoro-3-(4-methylArenyl)-3H-quinazolin-4-one]
[1]
  IC50 at 24 h: 55.8 ± 3.2 µM
[4]
  IC50: 19.2 to 38.2 µM
other
  melting point: 170 to 172 °C
MDA-MB-231 cells; Homo sapiens, MDA-MB-231, 24 h
  IC50: 19.2 ± 1.5 µM
MCF-7 cells; Homo sapiens, MCF7, 24 h
  IC50: 25.2 ± 1.9 µM
HeLa cells; Homo sapiens, 24 h
  IC50: 38.2 ± 2.3 µM
HepG2 cells [2]; Homo sapiens, HepG2, 24 h
  IC50: 29.5 ± 2.2 µM

## COc1cccc2c1C(=O)c1c(O)c3c(c(O)c1C2=O)C[C@@](O)(C(=O)CO)C[C@@H]3O[C@H]1C[C@H](N)[C@H](O)[C@H](C)O1 [Dox., doxorubicin, reference compound]
HepG2 cells [2]; Homo sapiens, HepG2, 24 h
  IC50: 4.5 ± 0.2 µM

## CCN(CC)CCNC(=O)c1c(C)[nH]c(/C=C2\C(=O)Nc3ccc(F)cc32)c1C [Sunitinib, sunitinib, reference compound]
[1]
  IC50 at 24 h: 77.3 ± 4.3 µM
MDA-MB-231 cells; Homo sapiens, MDA-MB-231, 24 h
  IC50: 19 ± 1.5 µM
MCF-7 cells; Homo sapiens, MCF7, 24 h
  IC50: 24.8 ± 1.8 µM
HeLa cells; Homo sapiens, 24 h
  IC50: 21.8 ± 1.7 µM
HepG2 cells [2]; Homo sapiens, HepG2, 24 h
  IC50: 11.3 ± 1 µM

From PMC10383864, “Novel 2-Sulfanylquinazolin-4(3H)-one Derivatives as Multi-Kinase Inhibitors and Apoptosis Inducers: A Synthesis, Biological Evaluation, and Molecular Docking Study” (Molecules, 2023)
